These compounds were tested against T1, Aromatase (Homo sapiens, UniProt P11511).
T1 sequence (P11511 whole entry): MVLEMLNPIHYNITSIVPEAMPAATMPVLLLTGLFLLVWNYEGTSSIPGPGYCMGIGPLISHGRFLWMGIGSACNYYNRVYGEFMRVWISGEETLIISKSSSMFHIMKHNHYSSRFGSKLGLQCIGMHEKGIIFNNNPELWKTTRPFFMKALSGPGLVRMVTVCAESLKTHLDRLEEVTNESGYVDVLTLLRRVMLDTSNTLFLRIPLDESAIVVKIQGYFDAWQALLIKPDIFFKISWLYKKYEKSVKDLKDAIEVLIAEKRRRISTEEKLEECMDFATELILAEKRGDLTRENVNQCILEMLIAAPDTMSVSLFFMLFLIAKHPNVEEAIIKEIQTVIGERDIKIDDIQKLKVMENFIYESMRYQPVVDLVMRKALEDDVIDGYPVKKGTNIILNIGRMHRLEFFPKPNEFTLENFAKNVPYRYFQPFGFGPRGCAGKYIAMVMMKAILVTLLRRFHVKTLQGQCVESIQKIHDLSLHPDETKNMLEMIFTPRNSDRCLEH

`C[C@]12C=CC(=O)C=C1C(c1ccc(OS(N)(=O)=O)cc1)=C[C@@H]1[C@@H]2CC[C@]2(C)C(=O)CC[C@@H]12` and `C[C@]12C=CC(=O)C=C1C(c1ccc(O)cc1)=C[C@@H]1[C@@H]2CC[C@]2(C)C(=O)CC[C@@H]12` are within 1.5-fold of each other in Ki: 56 nM for the first, 75 nM for the second.

`C[C@]12CC[C@@H]3c4ccc(O)cc4[C@@H](CCCc4ccccc4)C[C@H]3[C@@H]1CC[C@@H]2O` and `C[C@]12CC[C@@H]3c4ccc(O)cc4[C@H](CCCc4ccccc4)C[C@H]3[C@@H]1CC[C@@H]2O` are the same in Ki: 100 nM for the first, 100 nM for the second.

First: C[C@]12CCC(=O)C=C1[C@@H](OCc1ccccc1)C[C@@H]1[C@@H]2CC[C@]2(C)C(=O)CC[C@@H]12
Second: C[C@]12CCC(=O)C=C1[C@@H](CCc1ccccc1)C[C@@H]1[C@@H]2CC[C@]2(C)C(=O)CC[C@@H]12
The Ki of the first is 2.3-fold lower: 7 nM for the first, 16 nM for the second.

Compared with `C[C@]12CCC(=O)C=C1[C@H](CCCCc1ccccc1)C[C@@H]1[C@@H]2CC[C@]2(C)C(=O)CC[C@@H]12`, `CCCCC[C@H]1C[C@@H]2[C@H](CC[C@]3(C)C(=O)CC[C@@H]23)[C@@]2(C)CCC(=O)C=C12` is 1.7-fold lower in Ki: 16 nM for the first, 9.3 nM for the second.

`CCCCCCCC1=C[C@@H]2[C@H](CC[C@]3(C)C(=O)CC[C@@H]23)[C@@]2(C)CCC(=O)C=C12` and `CCCCCCC1=C[C@@H]2[C@H](CC[C@]3(C)C(=O)CC[C@@H]23)[C@@]2(C)CCC(=O)C=C12` are the same in Ki: 17 nM for the first, 17 nM for the second.

`CCCCCCCC1=C[C@@H]2[C@H](CC[C@]3(C)C(=O)CC[C@@H]23)[C@@]2(C)C=CC(=O)C=C12` and `CCCCCC1=C[C@@H]2[C@H](CC[C@]3(C)C(=O)CC[C@@H]23)[C@@]2(C)C=CC(=O)C=C12` are the same in Ki: 2.5 nM for the first, 2.5 nM for the second.

`CC1(C)C[C@@]2(C)C(=CC1=O)[C@@H](Br)C[C@@H]1[C@@H]2CC[C@]2(C)C(=O)CC[C@@H]12` and `CC1(C)C[C@@]2(C)C(=CC1=O)[C@H](Br)C[C@@H]1[C@@H]2CC[C@]2(C)C(=O)CC[C@@H]12` are within 1.5-fold of each other in Ki: 14 nM for the first, 10 nM for the second.

`C[C@]12CC[C@@H]3c4ccc(O)cc4[C@@H](Cc4ccccc4)C[C@H]3[C@@H]1CCC2=O` and `C[C@]12CC[C@@H]3c4ccc(O)cc4[C@H](Cc4ccccc4)C[C@H]3[C@@H]1CCC2=O` are the same in Ki: 100 nM for the first, 100 nM for the second.

`C[C@]12CCC(=O)C=C1C(c1ccc(O)cc1)=C[C@@H]1[C@@H]2CC[C@]2(C)C(=O)CC[C@@H]12` and `C[C@]12CCC(=O)C=C1C(c1ccc(OS(N)(=O)=O)cc1)=C[C@@H]1[C@@H]2CC[C@]2(C)C(=O)CC[C@@H]12` are within 1.5-fold of each other in Ki: 23 nM for the first, 30 nM for the second.

`Cc1cc2c(cc1O)CC[C@@H]1[C@@H]2CC[C@]2(C)[C@@H](O)CC[C@@H]12` and `C[C@]12CC[C@@H]3c4cc(Br)c(O)cc4CC[C@H]3[C@@H]1CC[C@@H]2O` are the same in Ki: 100 nM for the first, 100 nM for the second.

First: C[C@]12CCCC(=O)C1=CC[C@@H]1[C@@H]2CC[C@]2(C)C(=O)CC[C@@H]12
Second: C[C@]12CCC(=O)C=C1CC[C@@H]1[C@@H]2CC[C@]2(C)C(=O)CC[C@@H]12 [ANDROSTENEDIONE]
The Ki of the first is 3.4-fold higher: 120 nM for the first, 35 nM for the second. The second binds more tightly here.

`C[C@H]1C[C@@H]2[C@H](CC[C@]3(C)[C@@H](O)CC[C@@H]23)c2ccc(O)cc21` and `C[C@@H]1C[C@@H]2[C@H](CC[C@]3(C)[C@@H](O)CC[C@@H]23)c2ccc(O)cc21` are the same in Ki: 100 nM for the first, 100 nM for the second.

`C[C@]12C=CC(=O)C=C1C(CCc1ccccc1)=C[C@@H]1[C@@H]2CC[C@]2(C)C(=O)CC[C@@H]12` and `C[C@]12CCC(=O)C=C1C(CCc1ccccc1)=C[C@@H]1[C@@H]2CC[C@]2(C)C(=O)CC[C@@H]12` are within 1.5-fold of each other in Ki: 8.5 nM for the first, 10 nM for the second.

`C[C@]12C=CC(=O)C=C1C=C[C@@H]1[C@@H]2CC[C@]2(C)C(=O)CC[C@@H]12` and `CCC1=C[C@@H]2[C@H](CC[C@]3(C)C(=O)CC[C@@H]23)[C@@]2(C)C=CC(=O)C=C12` are the same in Ki: 2.5 nM for the first, 2.5 nM for the second.

First: CCCCCCCC[C@@H]1C[C@@H]2[C@H](CC[C@]3(C)C(=O)CC[C@@H]23)[C@@]2(C)CCC(=O)C=C12
Second: CCCCCCCC[C@H]1C[C@@H]2[C@H](CC[C@]3(C)C(=O)CC[C@@H]23)[C@@]2(C)CCC(=O)C=C12
The Ki of the first is 3.3-fold lower: 2.8 nM for the first, 9.3 nM for the second. The first binds more tightly here.

First: CC[C@H]1C[C@@H]2[C@H](CC[C@]3(C)C(=O)CC[C@@H]23)[C@@]2(C)CCCC=C12
Second: C[C@@H]1C[C@@H]2[C@H](CC[C@]3(C)C(=O)CC[C@@H]23)[C@@]2(C)CCCC=C12
The Ki of the first is 2.3-fold higher: 12 nM for the first, 5.3 nM for the second.

`C[C@]12CCC(=O)C=C1[C@@H](c1ccc(O)cc1)C[C@@H]1[C@@H]2CC[C@]2(C)C(=O)CC[C@@H]12` and `C[C@]12CCC(=O)C=C1[C@@H](c1ccc(OS(N)(=O)=O)cc1)C[C@@H]1[C@@H]2CC[C@]2(C)C(=O)CC[C@@H]12` are within 1.5-fold of each other in Ki: 27 nM for the first, 39 nM for the second.

`C[C@]12CC[C@@H]3c4ccc(O)cc4[C@@H](Cc4ccccc4)C[C@H]3[C@@H]1CC[C@@H]2O` and `C[C@]12CC[C@@H]3c4ccc(O)cc4[C@H](Cc4ccccc4)C[C@H]3[C@@H]1CC[C@@H]2O` are the same in Ki: 100 nM for the first, 100 nM for the second.

`CCC1=C[C@@H]2[C@H](CC[C@]3(C)C(=O)CC[C@@H]23)[C@@]2(C)CCC(=O)C=C12` and `CCCC1=C[C@@H]2[C@H](CC[C@]3(C)C(=O)CC[C@@H]23)[C@@]2(C)CCC(=O)C=C12` are the same in Ki: 17 nM for the first, 17 nM for the second.

Going from `CCCC1=C[C@@H]2[C@H](CC[C@]3(C)C(=O)CC[C@@H]23)[C@@]2(C)C=CC(=O)C=C12` to `CCCCC1=C[C@@H]2[C@H](CC[C@]3(C)C(=O)CC[C@@H]23)[C@@]2(C)CCC(=O)C=C12`, the Ki rises from 2.5 nM to 17 nM (6.8-fold).

Compared with `C[C@]12CC[C@@H]3c4ccc(O)cc4CC[C@H]3[C@@H]1CCC2=O` [ESTRONE], `C[C@]12CC[C@@H]3c4cc(Cl)c(O)cc4CC[C@H]3[C@@H]1CCC2=O` is 25-fold lower in Ki: 2500 nM for the first, 100 nM for the second.

`C[C@]12CC[C@@H]3c4cc(F)c(O)cc4CC[C@H]3[C@@H]1CCC2=O` and `Cc1cc2c(cc1O)CC[C@@H]1[C@@H]2CC[C@]2(C)C(=O)CC[C@@H]12` are the same in Ki: 100 nM for the first, 100 nM for the second.

`CC(=O)O[C@H]1C[C@@H]2[C@H](CC[C@]3(C)C(=O)CC[C@@H]23)[C@@]2(C)CCCC=C12` and `CC(=O)O[C@@H]1C[C@@H]2[C@H](CC[C@]3(C)C(=O)CC[C@@H]23)[C@@]2(C)CCCC=C12` are the same in Ki: 12 nM for the first, 12 nM for the second.

`C[C@]12CC[C@H]3[C@@H](CC=C4C=CCC[C@@]43C)[C@@H]1CC[C@@H]2O` and `C[C@]12CCC=CC1=CC[C@@H]1[C@@H]2CC[C@]2(C)C(=O)CC[C@@H]12` are the same in Ki: 58 nM for the first, 58 nM for the second.

`C[C@]12CC[C@H]3[C@@H](CC[C@]45O[C@H]4C(=O)CC[C@]35C)[C@@H]1CCC2=O` and `C[C@]12CC[C@H]3[C@@H](CC[C@]45O[C@H]4C(=O)CC[C@]35CO)[C@@H]1CCC2=O` are the same in Ki: 5000 nM for the first, 5000 nM for the second.

First: CCCCC[C@@H]1C[C@@H]2[C@H](CC[C@]3(C)C(=O)CC[C@@H]23)[C@@]2(C)CCC(=O)C=C12
Second: CCCCCC[C@H]1C[C@@H]2[C@H](CC[C@]3(C)C(=O)CC[C@@H]23)[C@@]2(C)CCC(=O)C=C12
The Ki of the first is 3.3-fold lower: 2.8 nM for the first, 9.3 nM for the second. The first binds more tightly here.

`C[C@]12CCCC(OC(=O)c3ccccc3)=C1CC[C@@H]1[C@@H]2CC[C@]2(C)C(=O)CC[C@@H]12` and `CC(=O)OC1=C2CC[C@@H]3[C@H](CC[C@]4(C)C(=O)CC[C@@H]34)[C@@]2(C)CCC1` are within 1.5-fold of each other in Ki: 70 nM for the first, 60 nM for the second.

First: C[C@]12CC[C@@H]3c4ccc(O)c(NC(=O)c5ccncc5)c4CC[C@H]3[C@@H]1CCC2=O
Second: C[C@]12CC[C@@H]3c4ccc(O)cc4[C@@H](CCCc4ccccc4)C[C@H]3[C@@H]1CCC2=O
The Ki of the first is 15-fold higher: 1530 nM for the first, 100 nM for the second. The second binds more tightly here.

First: C[C@]12CCC(=O)C=C1C(Cc1ccccc1)=C[C@@H]1[C@@H]2CC[C@]2(C)C(=O)CC[C@@H]12
Second: CCCCCC1=C[C@@H]2[C@H](CC[C@]3(C)C(=O)CC[C@@H]23)[C@@]2(C)CCC(=O)C=C12
The Ki of the first is 1.9-fold lower: 9 nM for the first, 17 nM for the second. The first binds more tightly here.

Compared with `C[C@]12CC[C@@H]3c4ccc(O)cc4[C@H](CCCc4ccccc4)C[C@H]3[C@@H]1CCC2=O`, `CCCCCC[C@@H]1C[C@@H]2[C@H](CC[C@]3(C)C(=O)CC[C@@H]23)[C@@]2(C)CCC(=O)C=C12` is 36-fold lower in Ki: 100 nM for the first, 2.8 nM for the second. The second binds more tightly here.

`C[C@]12CC[C@H]3[C@@H](C(=O)[C@H]4O[C@]45C(=O)CCC[C@]35C)[C@@H]1CCC2=O` and `C[C@]12CC[C@H]3[C@@H](C(=O)[C@H]4O[C@]45C(=O)CCC[C@]35C=O)[C@@H]1CCC2=O` are the same in Ki: 5000 nM for the first, 5000 nM for the second.

`C[C@]12CC[C@H]3[C@@H](CC(=O)[C@]45O[C@H]4C(=O)CC[C@]35C=O)[C@@H]1CCC2=O` and `C[C@]12CC[C@H]3[C@@H](CC[C@]45O[C@H]4C(=O)CC[C@]35C=O)[C@@H]1CCC2=O` are the same in Ki: 5000 nM for the first, 5000 nM for the second.

`C[C@]12CC[C@@H]3c4cc(Cl)c(O)cc4CC[C@H]3[C@@H]1CC[C@@H]2O` and `C[C@]12CC[C@@H]3c4cc(F)c(O)cc4CC[C@H]3[C@@H]1CC[C@@H]2O` are the same in Ki: 100 nM for the first, 100 nM for the second.

Compared with `CCCCCC(=O)O[C@H]1C[C@@H]2[C@H](CC[C@]3(C)C(=O)CC[C@@H]23)[C@@]2(C)CCC(=O)C=C12`, `CO[C@H]1C[C@@H]2[C@H](CC[C@]3(C)C(=O)CC[C@@H]23)[C@@]2(C)CCCC=C12` is 1.7-fold higher in Ki: 7 nM for the first, 12 nM for the second.

First: CCCCCCC1=C[C@@]2(C)C(=C(O)C1=O)CC[C@@H]1[C@@H]2CC[C@]2(C)C(=O)CC[C@@H]12
Second: C[C@H]1C[C@@H]2[C@H](CC[C@]3(C)C(=O)CC[C@@H]23)[C@@]2(C)CCCC=C12
The Ki of the first is 10-fold higher: 31 nM for the first, 3.1 nM for the second. The second binds more tightly here.

For `C[C@]12CC[C@H]3[C@@H](CC=C4CCCC[C@@]43C)[C@@H]1CC[C@@H]2O`, the Ki was 58 nM.

Reference: ChEMBL document CHEMBL3751755, “Developing steroidal aromatase inhibitors-an effective armament to win the battle against breast cancer” (Eur J Med Chem, 2015)
